Our source for the TGI and GI50 values is PubChem BioAssay (NCI).

Some test systems named below: A498 renal; CCRF-CEM leukemia; HCC-2998 colon; HOP-62 NSCLC; HT29 colon; K-562 leukemia; OVCAR-4 ovarian; OVCAR-5 ovarian; SNB-75 CNS; NCI/ADR-RES ovarian.
Common to all, as to experiment: NCI anticancer screen, dose series, 48 h

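All cell lines were grown in 96-well plates and treated with compound for 48 hours. The concentration for 50% growth inhibition is given as GI50. TGI: concentration producing complete growth inhibition.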

For `c1ccc(COc2cccc3ccc[n+](Cc4ccccc4)c23)cc1`, the TGI is 97.8 µM with A498 renal; > 100 µM with CCRF-CEM leukemia; 41.4 µM in the assay with HCC-2998 colon; 50.8 µM with HOP-62 NSCLC; > 100 µM with HT29 colon; > 100 µM with K-562 leukemia. The TGI in the assay with OVCAR-4 ovarian worked out at 45.7 µM; in the assay on OVCAR-5 ovarian it was 9.98 µM; in the assay on SNB-75 CNS, 19.4 µM.
With `[Cl-].[La+3].[O-]/N=C(\c1ccccc1)c1ccccn1.[O-]/N=C(\c1ccccc1)c1ccccn1.[O-]/N=C(\c1ccccc1)c1ccccn1`, the GI50 with A498 renal is 77.6 µM; in the assay with CCRF-CEM leukemia it was 25.7 µM; with HCC-2998 colon it was > 100 µM; with HOP-62 NSCLC, 28.4 µM; with HT29 colon, 50.4 µM; in the assay on K-562 leukemia it was 84.2 µM. In addition, in the assay on SNB-75 CNS, the GI50 is 27.8 µM. In addition, the TGI in the assay on A498 renal is > 100 µM; with CCRF-CEM leukemia it was > 100 µM; in the assay on HCC-2998 colon it was > 100 µM; with HOP-62 NSCLC, > 93.9 µM; in the assay with HT29 colon, > 100 µM; with K-562 leukemia, > 100 µM. Also, the TGI with SNB-75 CNS worked out at 82 µM.
Turning to `Cn1c2ccccc2c2cc(-c3ccccc3)c3c(c21)C(=O)c1ccccc1C3=O`, the TGI in the assay on A498 renal was > 100 µM; in the assay on CCRF-CEM leukemia it was 33 µM; in the assay with HCC-2998 colon, > 100 µM; in the assay on HOP-62 NSCLC it was > 100 µM; with HT29 colon it was > 100 µM; in the assay with K-562 leukemia, 73.1 µM. Also, the TGI in the assay with OVCAR-4 ovarian was 34.3 µM; in the assay on SNB-75 CNS, > 100 µM.
Turning to `CC(C)OP(=O)(OC(C)C)C(=NCCN=C(NNc1ccc([N+](=O)[O-])cc1)P(=O)(OC(C)C)OC(C)C)NNc1ccc([N+](=O)[O-])cc1`, the TGI was 60.3 µM with A498 renal; > 100 µM with CCRF-CEM leukemia; > 100 µM in the assay with HCC-2998 colon; > 100 µM with HOP-62 NSCLC; > 100 µM with K-562 leukemia; > 100 µM with OVCAR-4 ovarian. Besides, the TGI in the assay on OVCAR-5 ovarian and in the assay with SNB-75 CNS was > 100 µM in each case.
On to `Cc1cccc(NC(=O)Cn2cnc3sc(C(=O)OC(C)C)c(C)c3c2=O)c1`, for which the GI50 is 16.1 µM in the assay with A498 renal; > 50 µM in the assay on CCRF-CEM leukemia; 13.7 µM in the assay on HOP-62 NSCLC; > 50 µM in the assay with K-562 leukemia; 17.5 µM with SNB-75 CNS. In addition, the TGI was > 50 µM in the assay on A498 renal; > 50 µM in the assay on CCRF-CEM leukemia; 35.9 µM in the assay with HOP-62 NSCLC; > 50 µM in the assay on K-562 leukemia; 39.5 µM in the assay on SNB-75 CNS.
On to `Cc1ccc(NC(=O)c2cc3cc(N=Nc4ccccc4C(=O)O)ccc3oc2=O)cc1`, for which the TGI in the assay on CCRF-CEM leukemia, with HOP-62 NSCLC, in the assay on HT29 colon, in the assay with K-562 leukemia and in the assay on SNB-75 CNS was > 100 µM in each case.
`O=S1(=O)OCCOS(=O)(=O)C1Br`: the TGI in the assay on A498 renal, with CCRF-CEM leukemia, in the assay with HCC-2998 colon, in the assay on HOP-62 NSCLC, in the assay on HT29 colon and with K-562 leukemia was > 100 µM each time. Also, the TGI in the assay with OVCAR-4 ovarian and in the assay on SNB-75 CNS was > 100 µM in each case.
For the compound `Cc1ccc(S(=O)(=O)Nc2ccccc2C(=O)c2ccc(C)c(C)c2)cc1`, the TGI with A498 renal, in the assay with HOP-62 NSCLC, in the assay with HT29 colon, with NCI/ADR-RES ovarian, with OVCAR-4 ovarian and in the assay with OVCAR-5 ovarian was > 100 µM throughout. Besides, the TGI in the assay on SNB-75 CNS is > 100 µM.
Turning to `CC(=O)OC1COC(n2ccc3cc(Br)c([N+](=O)[O-])cc32)C(OC(C)=O)C1OC(C)=O` (stereo not drawn), the TGI with A498 renal is 78.9 µM; in the assay with CCRF-CEM leukemia it was 81.7 µM; with HCC-2998 colon, 59.6 µM; in the assay on HOP-62 NSCLC, 92.2 µM; in the assay with HT29 colon, > 100 µM; with K-562 leukemia, > 100 µM. The TGI in the assay with SNB-75 CNS came to 75.2 µM.
Consider `CN(C)c1ccc(/C=C(\NC(=O)c2ccccc2)c2nc3ncncc3[nH]2)cc1`, for which the TGI with CCRF-CEM leukemia, in the assay on HCC-2998 colon, with HT29 colon, with K-562 leukemia, with OVCAR-4 ovarian and in the assay on OVCAR-5 ovarian was > 100 µM throughout.
Take `COc1cc2c(c(OC)c1OC)-c1ccc(OC)c(=O)cc1C(NC(=O)c1ccc(N=[N+]=[N-])cc1)CC2` (stereo not drawn): the TGI was 0.0847 µM with A498 renal; > 24.5 µM in the assay on CCRF-CEM leukemia; 0.0513 µM in the assay on HCC-2998 colon; > 95.1 µM in the assay with HOP-62 NSCLC; 0.208 µM in the assay on HT29 colon; > 39.2 µM in the assay with K-562 leukemia. Moreover, the TGI in the assay with OVCAR-4 ovarian is > 100 µM; in the assay with OVCAR-5 ovarian, > 100 µM; with SNB-75 CNS it was > 90.8 µM.
As to `CCCCCCN(CCCCCC)C(=O)Cc1c2n(c3ccccc13)Cc1ccccc1-2`, the TGI with CCRF-CEM leukemia is 90.1 µM; in the assay with HCC-2998 colon, > 100 µM; with HOP-62 NSCLC, > 100 µM; with HT29 colon, > 100 µM; in the assay with K-562 leukemia it was > 100 µM; with OVCAR-4 ovarian, > 100 µM. The TGI in the assay with SNB-75 CNS is > 100 µM.
For `CC(=O)/C(=C\c1cccc([N+](=O)[O-])c1)C(=O)Nc1ccccc1C`, the TGI in the assay with CCRF-CEM leukemia, with HCC-2998 colon, with HOP-62 NSCLC, in the assay on HT29 colon, in the assay on K-562 leukemia and in the assay on OVCAR-4 ovarian was > 100 µM in each case. For the same compound, the TGI with OVCAR-5 ovarian was > 100 µM.
`CN(C)c1nc(=Nc2ccc(N=c3nc(N(C)C)ss3)cc2)ss1`: the TGI in the assay with A498 renal is > 79.3 µM; with CCRF-CEM leukemia it was 27.7 µM; with HCC-2998 colon, > 100 µM; in the assay with HOP-62 NSCLC it was > 100 µM; with HT29 colon it was 54.5 µM; in the assay with K-562 leukemia, 30.5 µM. The TGI in the assay with OVCAR-4 ovarian is 48.1 µM; in the assay on OVCAR-5 ovarian it was > 100 µM; with SNB-75 CNS, > 100 µM.
As to `COC(OC)C(C)CC(=O)N(C)C` (stereo not drawn), the TGI in the assay on A498 renal, in the assay on CCRF-CEM leukemia, in the assay with HCC-2998 colon, in the assay on HOP-62 NSCLC, in the assay with HT29 colon and in the assay on K-562 leukemia was > 100 µM throughout. Moreover, the TGI in the assay with OVCAR-4 ovarian, with OVCAR-5 ovarian and in the assay with SNB-75 CNS was > 100 µM throughout.
